{
  "source": "patent US9156838B2",
  "about": "“Fused heterocyclic compound” (Sumitomo Chemical Company, Limited, priority 2012, dated 2015)",
  "tested_on": "Blattella germanica",
  "assay": "Test Example 9: treated filter paper with sucrose bait, Blattella germanica male imagoes",
  "format": "in vivo",
  "settings": "500 ppm, 0.7 ml on filter paper, after 6 days",
  "procedure": "The formulations of Compounds 3 and 10 as obtained in Formulation Example 5 were diluted with water, so as to have a concentration of the active ingredient of 500 ppm, to prepare a test drug solution.\nA filter paper having a diameter of 5.5 cm was spread on the bottom of a polyethylene cup having the same diameter and 0.7 ml of the test drug solution was added dropwise onto the filter paper, and 30 mg of sucrose was uniformly placed as bait. Into the polyethylene cup, 2 male imagoes of Blattella germanica were released, and the cup was sealed with a lid. After 6 days, the life and death of Blattella germanica was examined, and the death rate was calculated.",
  "data": [
    {"compound": "CCS(=O)(=O)c1cc([S+]([O-])C(F)(F)F)ccc1-c1nc2cc(C(F)(F)F)cnc2n1C", "note": "(centres unmarked) [Compound 3]", "values": [
      {"measurement": "death rate", "value": 100, "unit": "%"}
    ]},
    {"compound": "CCS(=O)(=O)c1cc(SC(F)(F)F)ccc1-c1nc2cc(C(F)(F)C(F)(F)F)cnc2n1C", "note": "[Compound 10, 2-(2-ethylsulfonyl-4-trifluoromethylsulfanylphenyl)3-methyl-6-pentafluoroethyl-3H-imidazo[4,5-b]pyridine]", "values": [
      {"measurement": "death rate", "value": 100, "unit": "%"}
    ]}
  ]
}
